According to ChEMBL document CHEMBL1133926, “Optimization of a screening lead for factor VIIa/TF” (Bioorg Med Chem Lett, 2001):
Active and inactive are the calls of the source. The calls are words filed in the database; no cut-off is given here.

Key:
[1] = biological target: Coagulation factor VII/tissue factor (Homo sapiens, UniProt P08709); experiment: Binding affinity for factor VIIa/TF; format: protein-complex assay
[2] = biological target: T1, Prothrombin (Homo sapiens, UniProt P00734); experiment: Binding affinity for Coagulation factor II relative to compound 1
[3] = biological target: T2, Plasminogen (Homo sapiens, UniProt P00747); experiment: Relative affinity for Plasmin compared to compound 1
[4] = biological target: T3, Coagulation factor X (Homo sapiens, UniProt P00742); experiment: Binding affinity for Coagulation factor X with respect to compound 1
[5] = biological target: T4, Urokinase-type plasminogen activator (Homo sapiens, UniProt P00749); experiment: Relative binding affinity for urokinase-type plasminogen activator
[6] = biological target: T5, Serine protease 1 (Homo sapiens, UniProt P07477); experiment: Relative binding affinity towards Trypsin
[7] = biological target: T3, Coagulation factor X; experiment: Binding affinity towards coagulation factor X with respect to compound 1
[8] = organism: Homo sapiens; experiment: (§1) In vitro anticoagulant activity in human plasma to double the prothrombin time (2x PT); format: functional
[9] = biological target: T1, Prothrombin; experiment: Binding affinity towards Thrombin with respect to compound 1
[10] = as §1; format: functional
[11] = biological target: T1, Prothrombin; experiment: Binding affinity towards Coagulation factor II
[12] = biological target: T4, Urokinase-type plasminogen activator; experiment: Binding affinity towards urokinase-type plasminogen activator (microPa)
[13] = biological target: T2, Plasminogen; experiment: Binding affinity towards Plasmin
[14] = biological target: T5, Serine protease 1; experiment: Binding affinity towards Trypsin
[15] = biological target: T3, Coagulation factor X; experiment: Binding affinity towards Coagulation factor X
[16] = biological target: T6, Coagulation factor VII (Homo sapiens, UniProt P08709); experiment: Binding affinity towards factor VIIa/TF was determined
T6 sequence (P08709 whole entry): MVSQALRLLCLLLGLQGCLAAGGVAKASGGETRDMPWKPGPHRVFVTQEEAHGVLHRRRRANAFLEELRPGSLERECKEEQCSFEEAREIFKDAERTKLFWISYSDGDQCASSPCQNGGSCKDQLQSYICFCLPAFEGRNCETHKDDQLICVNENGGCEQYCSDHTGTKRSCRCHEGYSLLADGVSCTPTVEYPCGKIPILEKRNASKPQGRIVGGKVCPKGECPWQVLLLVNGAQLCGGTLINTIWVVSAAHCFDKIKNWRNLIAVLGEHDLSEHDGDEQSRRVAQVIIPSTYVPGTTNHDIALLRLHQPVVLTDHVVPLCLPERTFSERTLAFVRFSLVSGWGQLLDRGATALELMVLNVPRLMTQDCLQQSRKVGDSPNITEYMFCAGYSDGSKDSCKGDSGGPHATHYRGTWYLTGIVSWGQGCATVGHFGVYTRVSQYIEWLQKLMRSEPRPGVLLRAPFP

[17] = organism: Homo sapiens; experiment: In vitro anticoagulant activity in human plasma to double the prothrombin time (2xP T); Not active; format: functional, cell-free

Chain of Coagulation factor VII/tissue factor (P13726 33-295 partner limits assumed, one chain of several): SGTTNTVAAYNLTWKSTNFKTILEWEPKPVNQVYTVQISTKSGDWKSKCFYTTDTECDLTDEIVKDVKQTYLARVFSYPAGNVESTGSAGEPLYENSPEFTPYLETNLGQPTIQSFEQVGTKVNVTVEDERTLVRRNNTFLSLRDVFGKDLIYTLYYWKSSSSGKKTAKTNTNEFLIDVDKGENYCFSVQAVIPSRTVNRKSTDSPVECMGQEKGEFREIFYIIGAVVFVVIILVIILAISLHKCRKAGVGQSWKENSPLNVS
T5 sequence (P07477 whole entry): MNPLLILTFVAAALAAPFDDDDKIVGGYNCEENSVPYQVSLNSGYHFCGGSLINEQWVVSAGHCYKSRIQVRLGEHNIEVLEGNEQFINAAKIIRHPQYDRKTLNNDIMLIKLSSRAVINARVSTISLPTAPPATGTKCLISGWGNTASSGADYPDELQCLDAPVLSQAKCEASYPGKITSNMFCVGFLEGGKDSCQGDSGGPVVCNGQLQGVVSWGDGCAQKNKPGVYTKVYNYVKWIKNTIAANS
T2 sequence (P00747 97-580 limits assumed): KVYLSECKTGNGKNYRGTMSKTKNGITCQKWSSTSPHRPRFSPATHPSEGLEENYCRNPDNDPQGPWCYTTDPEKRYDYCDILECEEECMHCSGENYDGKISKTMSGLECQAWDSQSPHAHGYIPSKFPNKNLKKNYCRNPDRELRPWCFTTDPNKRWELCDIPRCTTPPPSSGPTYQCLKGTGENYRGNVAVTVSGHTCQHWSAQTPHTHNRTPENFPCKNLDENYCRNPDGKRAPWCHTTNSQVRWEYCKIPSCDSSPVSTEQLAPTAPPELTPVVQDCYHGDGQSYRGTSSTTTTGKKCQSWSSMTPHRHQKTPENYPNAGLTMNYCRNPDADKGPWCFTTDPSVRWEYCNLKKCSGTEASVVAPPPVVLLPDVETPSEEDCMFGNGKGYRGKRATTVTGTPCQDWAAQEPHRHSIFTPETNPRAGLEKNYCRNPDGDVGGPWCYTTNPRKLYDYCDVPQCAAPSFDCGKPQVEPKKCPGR
T2 sequence (P00747 581-810 limits assumed): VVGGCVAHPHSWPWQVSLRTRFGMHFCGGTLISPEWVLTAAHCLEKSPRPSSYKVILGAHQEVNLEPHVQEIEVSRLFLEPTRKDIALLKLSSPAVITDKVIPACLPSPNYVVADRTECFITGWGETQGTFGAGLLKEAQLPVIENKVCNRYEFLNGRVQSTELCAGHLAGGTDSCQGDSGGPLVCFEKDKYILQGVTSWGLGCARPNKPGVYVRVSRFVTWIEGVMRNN
T3 sequence (P00742 41-179 limits assumed): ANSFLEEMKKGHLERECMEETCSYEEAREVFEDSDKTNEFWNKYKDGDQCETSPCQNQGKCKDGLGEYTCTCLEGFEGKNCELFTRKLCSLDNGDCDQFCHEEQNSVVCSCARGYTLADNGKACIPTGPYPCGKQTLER
T3 sequence (P00742 235-488 limits assumed): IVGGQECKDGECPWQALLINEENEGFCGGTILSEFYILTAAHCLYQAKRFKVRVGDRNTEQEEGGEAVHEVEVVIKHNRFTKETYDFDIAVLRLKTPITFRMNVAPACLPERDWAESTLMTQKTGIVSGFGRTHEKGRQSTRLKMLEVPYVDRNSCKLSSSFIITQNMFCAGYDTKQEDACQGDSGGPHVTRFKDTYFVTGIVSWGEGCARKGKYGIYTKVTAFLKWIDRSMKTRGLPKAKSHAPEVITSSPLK

Compound	Ki [1] [nM]	Selectivity [2]	Selectivity [3]	Selectivity [4]	Selectivity [5]	Selectivity [6]	further results
N=C(N)c1ccc2[nH]c(-c3cc(CC(=O)O)cc(-c4cccc(OP(=O)(O)O)c4)c3O)cc2c1	950	87	4	1	4	inactive	
N=C(N)c1ccc2[nH]c(-c3cc(CC(=O)O)cc(-c4cccc(Cl)c4)c3O)cc2c1	33	112	17	5	4	3	
N=C(N)c1ccc2[nH]c(-c3cc(-c4nn[nH]n4)cc(-c4cccc([N+](=O)[O-])c4)c3O)cc2c1			20		15	40	Selectivity [7]: 0.5; 2x PT [8]: 16 µM; Selectivity [9]: 140
N=C(N)c1ccc2[nH]c(-c3cc(CC(=O)O)cc(-c4cccc([N+](=O)[O-])c4)c3O)cc2c1	3	960	90	20	64	160	2x PT [10]: 1.7 µM
N=C(N)c1ccc2[nH]c(-c3cc(CC(=O)O)cc(-c4cccc(-c5nnn[nH]5)c4)c3O)cc2c1	480						
N=C(N)c1ccc2nc(-c3cc(Cl)cc(-c4cccc(N)c4)c3O)[nH]c2c1	78						Ki [11]: 4.2 nM; Ki [12]: 0.46 nM; Ki [13]: 3200 nM; Ki [14]: 4700 nM; Ki [15]: 0.5 nM
N=C(N)c1ccc2[nH]c(-c3cc(CC(=O)O)cc(-c4cccc(C(=O)O)c4)c3O)cc2c1	320	375	5	0.5	6	1	
N=C(N)c1ccc2[nH]c(-c3cc(-c4nnn[nH]4)cc(-c4cccc([N+](=O)[O-])c4)c3O)cc2c1							Ki [16]: 50 nM
N=C(N)c1ccc2[nH]c(-c3cc(CC(=O)O)cc(-c4cccc(-c5nn[nH]n5)c4)c3O)cc2c1		100	2	0.5	2	3	
N=C(N)c1ccc2[nH]c(-c3cc(C(=O)O)cc(-c4cccc([N+](=O)[O-])c4)c3O)cc2c1	5	420	75	42	44	70	2x PT [10]: 4.1 µM
N=C(N)c1ccc2[nH]c(-c3cc(CC(=O)O)cc(-c4ccccc4)c3O)cc2c1	41	49	6	4	1	1	
N=C(N)c1ccc2[nH]c(-c3cc(CC(=O)O)cc(-c4cccc(N)c4)c3O)cc2c1	12	550	27	26	6	83	
N=C(N)c1ccc2[nH]c(-c3cc(CCC(=O)O)cc(-c4cccc([N+](=O)[O-])c4)c3O)cc2c1	27	59	6	2	6	37	2x PT [10]: 2.2 µM
N=C(N)c1ccc2[nH]c(-c3cc(CC(N)C(=O)O)cc(-c4cccc([N+](=O)[O-])c4)c3O)cc2c1 (stereo not given)			3		1	5	Selectivity [7]: 0.5; 2x PT [8]: 0.73 µM; Ki [16]: 50 nM; Selectivity [9]: 40
N=C(N)c1ccc2[nH]c(-c3cc(CCOP(=O)(O)O)cc(-c4cccc([N+](=O)[O-])c4)c3O)cc2c1	3	870	33	5	21	63	2x PT [17]: inactive
N=C(N)c1cccc(-c2cc(CC(=O)O)cc(-c3cc4cc(C(=N)N)ccc4[nH]3)c2O)c1	430	140	3	4	0.6	2	
